Where two headings read alike, the source gives them in different places.
System: PBMC (T cell proliferation)
Assay: T cell proliferation assay, PHA-stimulated human PBMC (BrdU ELISA)
Assay type: cell-based
Details: 48 hours, BrdU
Procedure, shortened: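 BrdU ELISA readout of proliferation at 48 hours. Cells: human PBMC from healthy donors in 10% dialyzed FCS/RPMI1640, 1×10^5 per well, activated by 2 μg/ml phytohaemagglutinin in the presence of compound.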

[1] = PHA-stimulated human PBMC, column D, activity classes 1-4, read-out: IC50 (Tcell proliferation)
[2] = human PBMC, 2 μg/ml PHA, read-out: D: IC50 (Tcell proliferation)

SMILES | IC50 [1] | IC50 [2]
Cc1nnc(-c2c(-c3c(F)cccc3Cl)noc2-c2cnn(-c3cccc(S(N)(=O)=O)c3)c2C(F)(F)F)s1 [IB-23, 3-(4-(3-(2-chloro-6-fluorophenyl)-4-(5-methyl-1,3,4-thiadiazol-2-yl)isoxazol-5-yl)-5-(trifluoromethyl)-1H-pyrazol-1-yl)benzenesulfonamide] | 1000 to 10000 nM | 
CCOC(=O)c1c(-c2c(F)cccc2Cl)noc1-c1cnn(-c2ccc(C#N)cc2)c1C(F)(F)F [Example B-40, ethyl 3-(2-chloro-6-fluorophenyl)-5-(1-(4-cyanophenyl)-5-(trifluoromethyl)-1H-pyrazol-4-yl)-isoxazole-4-carboxylate] |  | 1000 to 10000 nM
Fc1cccc(Cl)c1-c1noc(-c2cnn(-c3cccc(Cl)c3)c2C(F)(F)F)c1-c1cnco1 [Example I-8, 3-(2-chloro-6-fluorophenyl)-5-(1-(3-chlorophenyl)-5-(trifluoromethyl)-1H-pyrazol-4-yl)-4-(oxazol-5-yl)isoxazole] | < 10 nM | 
COC(=O)c1c(-c2ccc(Cl)c(Cl)c2)noc1-c1cnn(-c2cccc(F)c2)c1C(F)(F)F [Example 97, methyl 3-(3,4-dichlorophenyl)-5-(1-(3-fluorophenyl)-5-(trifluoromethyl)-1H-pyrazol-4-yl)isoxazole-4-carboxylate] |  | 1000 to 10000 nM
COC(=O)c1c(-c2c(Cl)cccc2Cl)noc1-c1cnn(-c2cccc(F)c2)c1C(F)(F)F [Example 109, methyl 3-(2,6-dichlorophenyl)-5-(1-(3-fluorophenyl)-5-(trifluoromethyl)-1H-pyrazol-4-yl)isoxazole-4-carboxylate] |  | < 10 nM
CCOC(=O)c1c(-c2c(Cl)cccc2Cl)noc1-c1cnn(-c2cccc(Cl)c2)c1C(F)(F)F [Example B-45, ethyl 5-(1-(3-chlorophenyl)-5-(trifluoromethyl)-1H-pyrazol-4-yl)-3-(2,6-dichlorophenyl)-isoxazole-4-carboxylate] |  | < 10 nM
CNC(=O)c1c(-c2c(F)cccc2Cl)noc1-c1cnn(-c2ccccn2)c1C(F)(F)F [Example B-93, 3-(2-chloro-6-fluorophenyl)-N-methyl-5-(1-(pyridin-2-yl)-5-(trifluoromethyl)-1H-pyrazol-4-yl)isoxazole-4-carboxamide] |  | 1000 to 10000 nM
CCOC(=O)c1c(-c2c(F)cccc2Cl)noc1-c1cnn(-c2ccccc2F)c1C(F)(F)F [Example 42, Ethyl 3-(2-chloro-6-fluorophenyl)-5-[1-(2-fluorophenyl)-5-(trifluoromethyl)-1H-pyrazol-4-yl]isoxazole-4-carboxylate] |  | 10 to 100 nM
CNC(=O)c1c(-c2c(Cl)cccc2Cl)noc1-c1cnn(-c2cccc(F)c2)c1C(F)(F)F [Example 110, 3-(2,6-dichlorophenyl)-5-(1-(3-fluorophenyl)-5-(trifluoromethyl)-1H-pyrazol-4-yl)-N-methylisoxazole-4-carboxamide] |  | 10 to 100 nM
COC(=O)c1c(-c2c(F)cccc2Cl)noc1-c1cnn(-c2ccccc2I)c1C(F)(F)F [Example 88, methyl 3-(2-chloro-6-fluorophenyl)-5-(1-(2-iodophenyl)-5-(trifluoromethyl)-1H-pyrazol-4-yl)isoxazole-4-carboxylate] |  | 1000 to 10000 nM
CNC(=O)c1c(-c2ccccc2Cl)noc1-c1cnn(-c2cccc(F)c2)c1C(F)(F)F [Example 96, 3-(2-chlorophenyl)-5-(1-(3-fluorophenyl)-5-(trifluoro-methyl)-1H-pyrazol-4-yl)-N-methylisoxazole-4-carboxamide] |  | 100 to 1000 nM
CSC(=O)c1c(-c2c(F)cccc2Cl)noc1-c1cnn(-c2cccc(Cl)c2)c1C(F)(F)F [Example 126, S-methyl 3-(2-chloro-6-fluorophenyl)-5-(1-(3-chlorophenyl)-5-(trifluoromethyl)-1H-pyrazol-4-yl)isoxazole-4-carbothioate] |  | < 10 nM
CCOC(=O)c1c(-c2c(F)cccc2Cl)noc1-c1cnn(-c2cccnc2)c1C(F)(F)F [Example B-37, ethyl 3-(2-chloro-6-fluorophenyl)-5-(1-(pyridin-3-yl)-5-(trifluoromethyl)-1H-pyrazol-4-yl)-isoxazole-4-carboxylate] |  | < 10 nM
CCOC(=O)c1c(-c2ccccc2F)noc1-c1cnn(-c2cccc(Cl)c2)c1C(F)(F)F [Example B-47, ethyl 5-(1-(3-chlorophenyl)-5-(trifluoromethyl)-1H-pyrazol-4-yl)-3-(2-fluorophenyl)isoxazole-4-carboxylate] |  | 10 to 100 nM
COC(=O)c1csc(-c2c(-c3c(F)cccc3Cl)noc2-c2cnn(-c3cccc(F)c3)c2C(F)(F)F)n1 [IB-2, methyl 2-{3-(2-chloro-6-fluorophenyl)-5-[1-(3-fluorophenyl)-5-(trifluoromethyl)-1H-pyrazol-4-yl]isoxazol-4-yl}-1,3-thiazole-4-carboxylate] | 100 to 1000 nM | 
NC(=S)c1c(-c2c(F)cccc2Cl)noc1-c1cnn(-c2ccccc2Cl)c1C(F)(F)F [Example B-101, 3-(2-chloro-6-fluorophenyl)-5-(1-(2-chlorophenyl)-5-(trifluoromethyl)-1H-pyrazol-4-yl)isoxazole-4-carbothioamide] |  | 1000 to 10000 nM
O=C(c1c(-c2c(F)cccc2Cl)noc1-c1cnn(-c2cccc(Cl)c2)c1C(F)(F)F)N1CCOCC1 [Example B-35, (3-(2-chloro-6-fluorophenyl)-5-(1-(3-chlorophenyl)-5-(trifluoromethyl)-1H-pyrazol-4-yl)isoxazol-4-yl)(morpholino)methanone] |  | 1000 to 10000 nM
COC(=O)c1c(-c2c(F)cccc2Cl)noc1-c1cnn(-c2ccc(C(C)(C)C)cc2)c1C(F)(F)F [Example 81, methyl 5-(1-(4-tert-butylphenyl)-5-(trifluoromethyl)-1H-pyrazol-4-yl)-3-(2-chloro-6-fluorophenyl)isoxazole-4-carboxylate] |  | 1000 to 10000 nM
CCOC(=O)c1c(-c2onc(-c3c(F)cccc3Cl)c2C(=O)OC)cnn1-c1ccc(F)cc1F [Example 35, methyl 3-(2-chloro-6-fluorophenyl)-5-(1-(2,4-difluorophenyl)-5-(ethoxycarbonyl)-1H-pyrazol-4-yl)isoxazole-4-carboxylate] |  | 100 to 1000 nM
COC(=O)c1c(-c2c(F)cccc2Cl)noc1-c1cnn(-c2ccncc2)c1C(F)(F)F [Example B-69, methyl 3-(2-chloro-6-fluorophenyl)-5-(1-(pyridin-4-yl)-5-(trifluoromethyl)-1H-pyrazol-4-yl)isoxazole-4-carboxylate] |  | 10 to 100 nM
COC(=O)c1c(-c2c(F)cccc2Cl)noc1-c1cnn(-c2ccc(F)cc2)c1C(F)(F)F [Example 3, methyl 3-(2-chloro-6-fluorophenyl)-5-(1-(4-fluorophenyl)-5-(trifluoromethyl)-1H-pyrazol-4-yl)isoxazole-4-carboxylate] |  | 10 to 100 nM
CN1CCN(C(=O)c2c(-c3c(F)cccc3Cl)noc2-c2cnn(-c3ccccc3F)c2C(F)(F)F)CC1 [Example 17, (3-(2-chloro-6-fluorophenyl)-5-(1-(2-fluorophenyl)-5-(trifluoromethyl)-1H-pyrazol-4-yl)isoxazol-4-yl)(4-methylpiperazin-1-yl)methanone] |  | 1000 to 10000 nM
CSC(=O)c1c(-c2c(F)cccc2Cl)noc1-c1cnn(-c2cccnc2)c1C(F)(F)F [Example B-68, S-methyl 3-(2-chloro-6-fluorophenyl)-5-(1-(pyridin-3-yl)-5-(trifluoromethyl)-1H-pyrazol-4-yl)isoxazole-4-carbothioate] |  | 10 to 100 nM
